Measured values from US8273775B2, “Non-steroidal brassinosteroid mimetic” (priority 2006, dated 2012).

Test system: gene expression in Col-0 seedling shoots
Test: Microarray analysis (ATH1 Affymetrix) after BL or abrasin treatment
Assay type: in vivo, Arabidopsis
Conditions: 30 min
Protocol: FIG. 14: Clustering of gene expression profiles by QT-clust analysis. Clusters illustrating the major patterns of the data sets. Points: BIK-30: 30 μM abrasin 30 min; BL-30: 1 μM brassinolide 30 min; DMSO-30: control DMSO 30 min; BIK-120: 30 μM abrasin 120 min; BL-120: 1 μM brassinolide 120 min; DMSO-120: control DMSO 120 min.
Col-0 seeds were germinated vertically on ½ MS medium for 7 days under 16 h light/8 h dark cycles. The seedlings were overlaid with liquid ½ MS medium containing 1 μM brassinolide (BL, Fuji Chemical Industries, Ltd., Toyama, Japan), 30 μM abrasin (BIK, ChemBridge Corporation) and DMSO and treated for 30 and 120 min. The shoot parts were collected for RNA isolation. All sampling points were performed in three independent experiments. RNA was extracted using RNeasy kit (Qiagene). […] total RNA per array was used to hybridise the ATH1 Affymetrix Arabidopsis arrays according to standard procedure. The overrepresentation analyses were performed using BiNGO software (Maere et al., 2005).
We performed a microarray analysis using the Arabidopsis whole genome chip (Affymetix) to determine whether abrasin activated the expression of BR-inducible genes at transcriptional level. Wild-type Col-0 seedlings were exposed to 1 μM BL, 30 μM ABRASIN and DMSO (mock-treatment) for two time points (30 min and 120 min) and the shoot parts were collected for RNA isolation. The analysis of the variance of the normalized gene expression data took in account the variability parameters affecting the expression level: type of hormone treatment, duration of treatment and the interaction between these two.

O=C(O)CCC(=O)Nc1ccc(Br)cn1 [abrasin, 4-[(5-bromo-2-pyridinyl)amino]-4-oxobutanoic acid]
Fold-change AT4G16563 aspartyl protease family protein: 1.16
Fold-change AT4G16670 expressed protein: 0.79
Fold-change AT4G16780 homeobox-leucine zipper protein 4 (HAT4)/HD-ZIP protein: 0.54
Fold-change AT4G17250 expressed protein: 1.20
Fold-change AT4G17460 homeobox-leucine zipper protein 1 (HAT1)/HD-ZIP protein 1: 0.29
Fold-change AT4G21510 F-box family protein: 1.03
Fold-change AT4G23030 MATE efflux protein-related: 1.60
Fold-change AT4G23070 rhomboid family protein: 2.00
Fold-change AT4G23810 WRKY family transcription factor: 5.76
Fold-change AT4G24160 hydrolase, alpha/beta fold family protein: 1.42
Fold-change AT4G25620 hydroxyproline-rich glycoprotein family protein: 0.51
Fold-change AT4G25780 pathogenesis-related protein: 0.12
Fold-change AT4G27970 C4-dicarboxylate transporter/malic acid transport family protein: 2.43
Fold-change AT4G28240 wound-responsive protein-related: 0.49
Fold-change AT4G28490 leucine-rich repeat transmembrane protein kinase, putative: 1.20
Fold-change AT4G28703 expressed protein: 1.95
Fold-change AT4G28780 GDSL-motif lipase/hydrolase family protein: 1.00
Fold-change AT4G29070 expressed protein: 0.78
Fold-change AT4G30080 transcriptional factor B3 family protein: 0.89
Fold-change AT4G31020 expressed protein: 2.67
Fold-change AT4G32280 auxin-responsive AUX/IAA family protein (IAA29): 0.32
Fold-change AT4G33050 calmodulin-binding family protein: 2.38
Fold-change AT4G33700 CBS domain-containing protein: 0.73
Fold-change AT4G34610 homeodomain-containing protein: 1.02
Fold-change AT4G36110 auxin-responsive protein: 1.16
Fold-change AT4G36780 brassinosteroid signalling positive regulator-related: 0.49
Fold-change AT4G37240 expressed protein: 0.79
Fold-change AT4G37290 expressed protein: 0.95
Fold-change AT4G37590 phototropic-responsive NPH3 family protein: 1.04
Fold-change AT4G38840 auxin-responsive protein (SAUR14): 1.01
Fold-change AT4G38850 auxin-responsive protein (SAUR-AC1): 1.00
Fold-change AT4G38860 auxin-responsive protein (SAUR16): 0.79
Fold-change AT4G39400 brassinosteroid insensitive 1 (BRI1): 0.71
Fold-change AT5G02020 expressed protein: 1.01
Fold-change AT5G05690 cytochrome P450 90A1 (CYP90A1) (CYP90) (CPD): 0.63
Fold-change AT5G07690 myb family transcription factor (MYB29): 0.58
Fold-change AT5G08130 basic helix-loop-helix (bHLH) family protein (BIM2): 0.76
Fold-change AT5G12050 expressed protein: 0.52
Fold-change AT5G13180 no apical meristem (NAM) family protein: 0.77
Fold-change AT5G13740 sugar transporter family protein: 0.81
Fold-change AT5G14730 expressed protein: 0.38
Fold-change AT5G16200 50S ribosomal protein-related: 0.37
Fold-change AT5G16980 NADP-dependent oxidoreductase: 1.11
Fold-change AT5G18750 DNAJ heat shock N-terminal domain-containing protein: 1.91
Fold-change AT5G19200 short-chain dehydrogenase/reductase (SDR) family protein: 1.00
Fold-change AT5G19340 expressed protein: 0.83
Fold-change AT5G24030 C4-dicarboxylate transporter/malic acid transport family protein: 2.35
Fold-change AT5G24660 expressed protein: 2.43
Fold-change AT5G25240 expressed protein: 0.74
Fold-change AT5G25930 leucine-rich repeat family protein: 2.65
Fold-change AT5G27350 sugar-porter family protein 1 (SFP1): 1.07
Fold-change AT5G27670 histone H2A: 0.79
Fold-change AT5G38310 expressed protein: 1.00
Fold-change AT5G38990; AT5G39000 [AT5G38990, protein kinase family protein: 1.40
Fold-change AT5G39050 transferase family protein: 1.49
Fold-change AT5G39610 no apical meristem (NAM) family protein: 0.72
Fold-change AT5G39970 expressed protein: 1.42
Fold-change AT5G42830 transferase family protein: 1.03
Fold-change AT5G47370 homeobox-leucine zipper protein 2 (HAT2): 0.51
Fold-change AT5G48070 putative xyloglucan endotransglycosylase/hydrolase: 1.48
Fold-change AT5G48540 33 kDa secretory protein-related: 2.45
Fold-change AT5G51550 phosphate-responsive 1 family protein: 1.02
Fold-change AT5G54490 calcium-binding EF-hand protein, putative: 0.73
Fold-change AT5G54860 integral membrane transporter family protein: 1.69
Fold-change AT5G55970 zinc finger (C3HC4-type RING finger) family protein: 0.96
Fold-change AT5G56980 expressed protein: 0.43
Fold-change AT5G57190 phosphatidylserine decarboxylase: 1.32
Fold-change AT5G57780 expressed protein: 0.35
Fold-change AT5G59080 expressed protein: 0.46
Fold-change AT5G60200 Dof-type zinc finger domain-containing protein: 1.36
Fold-change AT5G60270 lectin protein kinase family protein: 0.96
Fold-change AT5G60630 expressed protein: 0.99
Fold-change AT5G61600 encodes a member of the ERF (ethylene response factor): 0.53
Fold-change AT5G62360 invertase/pectin methylesterase inhibitor family protein: 0.52
Fold-change AT5G65310 homeobox-leucine zipper protein 5 (HB-5)/HD-ZIP transcription factor 5: 0.90
Fold-change AT5G66420 expressed protein: 0.92
Fold-change AT5G66590 allergen V5/Tpx-1-related family protein: 0.53
Fold-change AT5G67450 zinc finger (C2H2 type) protein 1 (AZF1): 6.17
Fold-change of gene AT4G16140 (proline-rich family protein) (245479_at, Cluster 6): 1.16
Fold-change of gene AT4G15260 (UDP-glucoronosyl/UDP-glucosyl transferase family protein) (245543_at, Cluster 7): 1.41
Fold-change of gene AT5G09440 (phosphate-responsive protein, putative) (245885_at, Cluster 5): 0.38
Fold-change of gene AT1G77380 (amino acid carrier) (246389_at, Cluster 10): 1.32
Fold-change of gene AT5G15740 (expressed protein) (246516_at, Cluster 5): 0.78
Fold-change of gene AT5G65300 (expressed protein) (247177_at, Cluster 5): 0.31
Fold-change of gene AT5G64890 (expressed protein) (247205_at, Cluster 10): 1.01
Fold-change of gene AT5G63790 (no apical meristem (NAM) family protein) (247351_at, Cluster 9): 0.88
Fold-change of gene AT5G62630 (expressed protein) (247444_at, Cluster 7): 1.62
Fold-change of gene AT5G60850 (Dof-type zinc finger domain-containing protein) (247601_at, Cluster 10): 0.51
Fold-change of gene AT5G59510 (expressed protein) (247704_at, Cluster 9): 1.00
Fold-change of gene AT5G58660 (oxidoreductase. 2OG-Fe(II) oxygenase family protein) (247774_at, Cluster 5): 1.15
Fold-change of gene AT5G54120 (expressed protein) (248190_at, Cluster 5): 0.82
Fold-change of gene AT5G54130 (calcium-binding EF hand family protein) (248191_at, Cluster 5): 0.84
Fold-change of gene AT5G52900 (expressed protein) (248282_at, Cluster 6): 1.70
Fold-change of gene AT5G49100 (expressed protein) (248646_at, Cluster 9): 0.72
Fold-change of gene AT5G18060 (auxin-responsive protein) (250012_x_at, Cluster 6): 1.00
Fold-change of gene AT5G09800 (U-box domain-containing protein) (250493_at, Cluster 9): 1.04
Fold-change of gene AT5G08565 (expressed protein) (250537_at, Cluster 8): 0.87
Fold-change of gene AT5G03670 (expressed protein) (250907_at, Cluster 5): 0.61
Fold-change of gene AT5G01740 (expressed protein) (251072_at, Cluster 5): 0.33
Fold-change of gene AT3G63380 (calcium-transporting ATPase) (251176_at, Cluster 10): 0.85
Fold-change of gene AT3G60690 (auxin-responsive family protein) (251342_at, Cluster 9): 0.91
Fold-change of gene AT3G45610 (Dof-type zinc finger domain) (252586_at, Cluster 10): 0.94
Fold-change of gene AT3G44610 (protein kinase family protein) (252646_at, Cluster 5): 0.83
Fold-change of gene AT4G34760 (auxin-responsive family protein) (253255_at, Cluster 6): 1.80
Fold-change of gene AT4G34138 (UDP-glucoronosyl/UDP-glucosyl transferase family protein) (253281_at, Cluster 7): 1.52
Fold-change of gene AT4G31910 (transferase family protein) (253483_at, Cluster 5): 1.46
Fold-change of gene AT4G30410 (expressed protein) (253617_at, Cluster 5): 0.94
Fold-change of gene AT4G30450 (glycine-rich protein) (253629_at, Cluster 5): 0.84
Fold-change of gene AT4G26200 (1-aminocyclopropane-1-carboxylate synthase) (253999_at, Cluster 9): 1.11
Fold-change of gene AT4G03400 (auxin-responsive GH3 family protein) (255403_at, Cluster 6): 0.81
Fold-change of gene AT4G02700 (sulfate transporter) (255443_at, Cluster 7): 1.76
Fold-change of gene AT1G22190 (AP2 domain-containing transcription factor) (255926_at, Cluster 8): 0.45
Fold-change of gene AT1G66140 (zinc finger (C2H2 type) family protein) (256528_at, Cluster 6): 0.87
Fold-change of gene AT3G25655 (expressed protein) (256762_at, Cluster 8): 1.00
Fold-change of gene AT3G21420 (oxidoreductase, 2OG-Fe(II) oxygenase family protein) (256818_at, Cluster 7): 1.13
Fold-change of gene AT3G18280 (protease inhibitor/seed storage/lipid transfer protein) (257066_at, Cluster 5): 1.03
Fold-change of gene AT1G29440 (auxin-responsive family protein) (257506_at, Cluster 6): 0.96
Fold-change of gene AT3G29200 (chorismate mutase, chloroplast (CM1)) (257746_at, Cluster 5): 0.83
Fold-change of gene AT1G13260 (DNA-binding protein RAV1 (RAV1)) (259364_at, Cluster 8): 0.32
Fold-change of gene AT1G29500 (auxin-responsive protein) (259773_at, Cluster 6): 1.01
Fold-change of gene AT1G29510 (auxin-responsive protein) (259783_at, Cluster 6): 1.02
Fold-change of gene AT1G29450 (auxin-responsive protein) (259784_at, Cluster 6): 0.99
Fold-change of gene AT1G29460 (auxin-responsive protein) (259787_at, Cluster 6): 1.23
Fold-change of gene AT1G76690; AT1G76680 ([AT1G76690, 12-oxophytodienoate reductase (OPR2)) (259875_s_at, Cluster 7): 1.95
Fold-change of gene AT1G76620 (expressed protein) (259985_at, Cluster 8): 0.90
Fold-change of gene AT1G63720 (expressed protein) (260243_at, Cluster 10): 0.92
Fold-change of gene AT1G48100 (glycoside hydrolase family 28 protein) (260727_at, Cluster 8): 0.92
Fold-change of gene AT1G12200 (flavin-containing monooxygenase family protein) (261023_at, Cluster 7): 1.44
Fold-change of gene AT1G12845 (expressed protein) (261203_at, Cluster 6): 1.66
Fold-change of gene AT1G15550 (gibberellin 3-beta-dioxygenase) (261768_at, Cluster 6): 1.12
Fold-change of gene AT1G80840 (WRKY family transcription factor) (261892_at, Cluster 9): 0.43
Fold-change of gene AT1G80080 (leucine-rich repeat family protein) (262040_at, Cluster 6): 1.56
Fold-change of gene AT1G80130 (expressed protein) (262050_at, Cluster 8): 0.90
Fold-change of gene AT1G21680 (expressed protein) (262505_at, Cluster 10): 0.82
Fold-change of gene AT1G34245 (expressed protein) (262543_at, Cluster 6): 1.69
Fold-change of gene AT1G78460 (SOUL heme-binding family protein) (263126_at, Cluster 7): 1.01
Fold-change of gene AT1G78820; AT1G78830 ([AT1G78820, curculin-like (mannose-binding) lectin family protein) (264279_s_at, Cluster 7): 1.27
